Reference: the supplement of paper PMC10307832

Key:
Test in all cases: relative viability (nuclei count vs DMSO), 5 days (fraction); higher = more cells survive
CUDC-101 + Pictilisib = compound: C#Cc1cccc(Nc2ncnc3cc(OC)c(OCCCCCCC(=O)NO)cc23)c1 [CUDC-101] + CS(=O)(=O)N1CCN(Cc2cc3nc(-c4cccc5[nH]ncc45)nc(N4CCOCC4)c3s2)CC1 [Pictilisib] (partner 1 µM)
How it was run: (§1)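 Nuclei were stained with Hoechst during a one-step fixation (final 0.05% Triton X-100, 1% formaldehyde, 1 ug/ml Hoechst) carried out 5 days after dosing, then counted on 4× images. The cells, lung cancer lines in 1536-well plates, had been dosed by pin tool the day after seeding with one drug alone or a fixed anchor-drug dose plus five library-drug doses (not always all listed) in √10 steps. Relative viability is the nuclei count in treated wells divided by that in vehicle wells, and each value is the median of duplicate plates.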

CUDC-101 + Olaparib = compound: C#Cc1cccc(Nc2ncnc3cc(OC)c(OCCCCCCC(=O)NO)cc23)c1 [CUDC-101] + O=C(c1cc(Cc2n[nH]c(=O)c3ccccc23)ccc1F)N1CCN(C(=O)C2CC2)CC1 [Olaparib] (partner 8 µM)
How it was run: as §1

[1] = compound: C1=CC=C2C(=C1)N=C(S2)C(C#N)C3=NC(=NC=C3)NCCC4=CN=CC=C4 + O=C(CCCCCCC(=O)Nc1ccccc1)NO [Vorinostat] (partner 1 µM)
How it was run: as §1

NVP-TAE684 + Dasatinib = compound: COc1cc(N2CCC(N3CCN(C)CC3)CC2)ccc1Nc1ncc(Cl)c(Nc2ccccc2S(=O)(=O)C(C)C)n1 [NVP-TAE684] + Cc1nc(Nc2ncc(C(=O)Nc3c(C)cccc3Cl)s2)cc(N2CCN(CCO)CC2)n1 [Dasatinib] (partner 0.075 µM)
How it was run: as §1

Cell Line | relative viability (CUDC-101 + Pictilisib; first compound 0.01 µM) | relative viability (CUDC-101 + Pictilisib; first compound 0.03162 µM) | relative viability (CUDC-101 + Pictilisib; first compound 0.1 µM) | relative viability (CUDC-101 + Pictilisib; first compound 0.3162 µM) | relative viability (CUDC-101 + Pictilisib; first compound 1 µM) | relative viability (CUDC-101 + Olaparib; first compound 0.01 µM) | relative viability (CUDC-101 + Olaparib; first compound 0.03162 µM) | relative viability (CUDC-101 + Olaparib; first compound 0.1 µM) | relative viability (CUDC-101 + Olaparib; first compound 0.3162 µM) | relative viability (CUDC-101 + Olaparib; first compound 1 µM) | relative viability ([1]; first compound 0.005 µM) | relative viability ([1]; first compound 0.05 µM) | relative viability ([1]; first compound 0.1581 µM) | relative viability ([1]; first compound 0.5 µM) | relative viability (NVP-TAE684 + Dasatinib; first compound 0.2 µM) | relative viability (NVP-TAE684 + Dasatinib; first compound 0.6325 µM) | relative viability (NVP-TAE684 + Dasatinib; first compound 2 µM) | relative viability ([1]; first compound 0.01581 µM)
ABC-1 | 0.688 | 0.788 | 0.547 | 0.533 | 0.212 | 0.908 | 0.767 | 1.14 | 0.922 | 0.424 | 1.13 | 1.03 | 1.33 | 0.985 | 0.584 | 0.423 | 0.237 | –
NCI-H1666 | 0.395 | 0.397 | 0.322 | 0.394 | 0.271 | 0.777 | 0.741 | 0.717 | 0.751 | 0.713 | 0.959 | 1.07 | 1.04 | 1 | 0.813 | 0.708 | 0.46 | 0.922
COR-L23 | 0.846 | 0.861 | 0.751 | 0.68 | 0.23 | 0.402 | 0.374 | 0.331 | 0.266 | 0.294 | 0.377 | 0.464 | 0.421 | 0.36 | 0.366 | 0.301 | 0.117 | 0.354
NCI-H460 | 0.375 | 0.358 | 0.315 | 0.453 | 0.287 | 0.458 | 0.42 | 0.428 | 0.465 | 0.349 | – | 0.721 | 0.782 | 0.354 | 0.703 | 0.285 | 0.0445 | 0.651
